Literature values as cited in patent EP3173487A1 (priority 2015, dated 2017).

System: haloalkane dehalogenases
Settings: pH 8.6

| SMILES | classification as substrate of the analyzed haloalkane dehalogenases |
| --- | --- |
| ClCC(Cl)CCl [1,2,3-trichloropropane] | poor |
| BrCCBr [1,2-dibromoethane] | universal |
| CC(Cl)CCl (stereo not drawn) [1,2-dichloropropane] | poor |
| CCCCBr [1-bromobutane] | universal |
| CCCCI [1-iodobutane] | universal |
| CCCI [1-iodopropane] | universal |
| N#CCCCBr [4-bromobutanenitrile] | universal |
| BrCC1CCCCC1 [(bromomethyl)cyclohexane] | poor |
| ClC1CCCCC1 [chlorocyclohexane] | poor |
